In patent US20100324059A1, “PHARMACEUTICAL COMPOSITIONS USEFUL FOR TREATING HCV” (Gilead Sciences, Inc., priority 2009, published 2010):

Tested on: HCV genotype 1b replicon cells (Huh-luc)
Assay: Antiviral combination study of Compound 1 and Compound 2 in the HCV 1b replicon system (luciferase readout, MacSynergy II analysis)
Type: cell-based
Procedure: HCV genotype 1b replicon cells (Huh-luc) were obtained from Reblikon (Mainz, Germany). The replicon in these cells is designated I389luc-ubi-neo/NS3-3′/ET and encodes a selectable resistance marker (neomycin phosphotransferase) as well as the firefly luciferase reporter gene. Huh-luc cells were maintained in Dulbecco's Modified Eagle's Medium (DMEM; GIBCO, Carlsbad, Calif.) supplemented with 10% fetal bovine serum (FBS; Hyclone, Logan, Utah) and 0.5 mg/mL of G-418 (GIBCO). Cells were passaged twice a week and maintained at subconfluent levels.
Replicon cells were seeded in 96-well plates at a density of 5×10^3 cells per well in 100 μL of DMEM culture medium, excluding G-418. Compounds 1 and 2 were serially diluted 1:3 in 100% DMSO (Sigma). These serial dilutions were added to the cells at a 1:200 dilution to achieve a final concentration of 0.5% DMSO in a total volume of 200 μL. Plates were incubated at 37° C. for 3 days, after which culture media were removed and cells were lysed and assayed for luciferase activity using a commercial luciferase assay (Promega, Madison, Wis.). HCV replication levels in drug-treated samples were expressed as a percentage of those in untreated controls (defined as 100%), and data were fit to the logistic dose response equation y=a/(1+(x/b)c) using XLFit4 software (IDBS, Emeryville, Calif.). EC50 values were calculated from the resulting equations as described previously (Delaney, W. E., et al., Antimicrobial Agents Chemotherapy, 45(6):1705-1713 (2001)).
Replicon cells were seeded in 96-well plates at a density of 5×10^3 cells per well in 100 μL of culture medium. Compounds 1 and 2 were serially diluted in 100% DMSO as described above and added in a matrix format to 96-well plates, achieving a defined set of different drug concentrations and ratios in a final volume of 200 μL and a final DMSO concentration of 0.5%. For each individual drug, the EC50 value was selected as the midpoint for the concentration range tested. Cells were incubated for three days and analyzed for luciferase expression as indicated above. For the combination study, two independent experiments were performed in triplicate.
The calculated volumes of surface deviations are expressed in nM^2%. Per Prichard and Shipman, combination effects are defined as: • Highly synergistic if volumes >100 nM^2. • Moderately synergistic if volumes are >50 and ≦100 nM^2. • Additive if volumes are >−50 nM^2 and ≦50 nM^2. • Moderately antagonistic if volumes are >−100 nM^2 and ≦−50 nM^2. • Antagonistic if volumes are ≦−100 nM^2.

[1] = drug used in combination with Compound 1, 3 days, mean ± standard deviation of two or three independent experiments in triplicate

`CCC[C@H](NC(=O)[C@@H]1[C@H]2CCC[C@H]2CN1C(=O)[C@@H](NC(=O)[C@@H](NC(=O)c1cnccn1)C1CCCCC1)C(C)(C)C)C(=O)C(=O)NC1CC1` [Compound 2, (1S,3aR,6aS)—N-[1(S)-[2-(Cyclopropylamino)oxalyl]butyl]-2-[N-(pyrazin-2-ylcarbonyl)-L-cyclohexylglycyl-3-methyl-L-valyl]perhydrocyclopenta[c]pyrrole-1-carboxamide] was tested. Which “Antagonism Volume” value [1] did it give?
The value was 0 ± 0 nM^2.

And the “Synergy Volume” value [1]?
The value was 79.5 ± 10.5 nM^2.

What about the interaction (drug used in combination with Compound 1, classification per Prichard and Shipman) of the same compound?
Its interaction is “Moderate synergy”.

With `Fc1ccccc1-c1nc2ccn(Cc3ccc(-c4ccc(C(F)(F)F)cc4C(F)(F)F)nn3)cc-2n1` [Compound 1, 5-({6-[2,4-bis(trifluoromethyl)phenyl]pyridazin-3-yl}methyl)-2-(2-fluorophenyl)-5H-imidazo[4,5-c]pyridine] as the compound, how does the interaction (Compound 1 with Compound 2) read?
The interaction was “moderate synergistic interaction”.
